Source: patent US9062066B2, “Anti-inflammatory compound having inhibitory activity against multiple tyrosine kinases and pharmaceutical composition containing same” (KOREA INSTITUTE OF SCIENCE AND TECHNOLOGY, priority 2010, dated 2015)
Where two headings read alike, the source gives them in different places.

What was measured:
[1] = system: house mite allergic substance-induced asthma in mice; assay: house mite allergen asthma animal model; format: in vivo; conditions: for mucin in lung tissue (periodic Schiff staining): 20 ul intratracheal, LCB 03-0110 0.1%, Budesonide 0.03%
[2] = biological target: c-Src tyrosine kinase (Homo sapiens (Human), UniProt P12931); assay: in vitro c-Src tyrosine kinase inhibition (32P-ATP, poly(D4Y)n substrate); format: biochemical; conditions: 1 uM compound; read-out: % inhibition against c-Src
[3] = biological target: DDR1 tyrosine kinase (Homo sapiens (Human), UniProt Q08345); assay: in vitro DDR1 tyrosine kinase inhibition (GST-fused kinase domain); format: biochemical; conditions: read-out: % inhibition against DDR1
[4] = biological target: Fgr tyrosine kinase (Homo sapiens (Human), UniProt P09769); assay: in vitro Fgr tyrosine kinase inhibition; format: biochemical; conditions: read-out: % inhibition against Fgr
[5] = system: mouse skin fibroblast; assay: inhibition of migration of activated fibroblast (scratch wound); format: cell-based; conditions: 0.5 uM compound, 10 ng/ml TGF-β1, 24 hours, read-out: Inhibition (%) of migration of activated fibroblast
In short: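 Scratch wound was made on a fibroblast monolayer, then cells were kept in DMEM with 10 ng/ml TGF-β1 at 37° C for 24 hours. After formalin fixation and crystal violet staining, cells that had moved into the wound were counted at 100× in five random fields and averaged.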

[6] = biological target: Lyn tyrosine kinase (Homo sapiens (Human), UniProt P07948); assay: in vitro Lyn tyrosine kinase inhibition; format: biochemical; conditions: read-out: % inhibition against Lyn
[7] = biological target: DDR2 tyrosine kinase (Homo sapiens (Human), UniProt Q16832); assay: in vitro DDR2 tyrosine kinase inhibition (GST-fused kinase domain); format: biochemical; conditions: read-out: % inhibition against DDR2
[8] = biological target: Hck tyrosine kinase (Homo sapiens (Human), UniProt P08631); assay: in vitro Hck tyrosine kinase inhibition; format: biochemical; conditions: read-out: % inhibition against Hck
[9] = system: NO synthesis in J744A.1 macrophage; assay: inhibition of nitric oxide (NO) synthesis in LPS-activated macrophages (Griess reagent); format: cell-based; conditions: 24 h, read-out: Inhibition (%) of NO synthesis
[10] = system: TNF-α synthesis in J744A.1 macrophages; assay: inhibition of TNF-α synthesis in LPS-activated macrophages (ELISA); format: cell-based; conditions: Macrophage, 6 h, read-out: Inhibition (%) of TNF-α synthesis
[11] = system: oxazolone-induced skin inflammation of Balb/C mouse ears; assay: mouse skin inflammatory model induced by oxazolone (ear thickness); format: in vivo
In short: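 Oxazolone was used to induce skin inflammation in the ears of 8-week-old Balb/C mice. Ear thickness was measured by caliper before induction, again at 36 h to capture inflammatory swelling, and averaged per group (n=4).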

[12] = system: α-smooth muscle actin protein expression in skin fibroblast cells; assay: inhibition of α-smooth muscle actin expression in fibroblast activated by type I collagen and TGF-β1 (western blotting); format: cell-based, Balb/C mouse; conditions: Mus musculus, read-out: Inhibition (%) of α-smooth muscle actin increase
In short: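 α-Smooth muscle actin protein was detected by western blotting with chemiluminescence on X-ray film. Levels were quantified by densitometry of the band.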

[13] = system: TNCB-induced atopic dermatitis in Nc/Nga mice; conditions: 0.1% transdermal every day for two weeks
[14] = system: RBL-2H3 mast cells; assay: cells; conditions: Rattus norvegicus, RBL-2H3, read-out: inhibition of hexosaminidase release (degranulation)
[15] = system: IL-12 synthesis in J774A.1 macrophage; assay: cells; conditions: Mus musculus, J774.A1, read-out: inhibition of LPS-induced IL-12 synthesis
[16] = system: full excisional ear wounds in New Zealand white rabbits; conditions: 0.1% topical
[17] = 20 ul of 0.1% compound topical on ear, 36 hours after oxazolone
[18] = 0.5 uM compound, 10 ng/ml TGF-β1, 48 hours, type I collagen

Chain of Hck tyrosine kinase (P08631 whole entry): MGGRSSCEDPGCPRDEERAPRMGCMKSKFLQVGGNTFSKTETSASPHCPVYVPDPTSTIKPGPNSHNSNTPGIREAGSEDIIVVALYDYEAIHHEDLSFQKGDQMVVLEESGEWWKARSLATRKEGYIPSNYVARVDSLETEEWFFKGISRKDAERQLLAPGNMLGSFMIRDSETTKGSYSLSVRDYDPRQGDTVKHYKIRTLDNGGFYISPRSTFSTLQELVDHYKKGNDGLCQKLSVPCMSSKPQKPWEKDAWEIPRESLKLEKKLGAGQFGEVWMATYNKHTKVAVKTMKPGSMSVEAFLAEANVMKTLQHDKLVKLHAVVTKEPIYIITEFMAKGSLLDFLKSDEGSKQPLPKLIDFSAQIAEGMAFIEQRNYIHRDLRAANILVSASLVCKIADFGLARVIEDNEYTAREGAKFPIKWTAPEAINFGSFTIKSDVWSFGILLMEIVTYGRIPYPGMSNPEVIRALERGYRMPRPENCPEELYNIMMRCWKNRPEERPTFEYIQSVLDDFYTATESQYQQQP
Chain of Lyn tyrosine kinase (P07948 whole entry, the tested form may be a part): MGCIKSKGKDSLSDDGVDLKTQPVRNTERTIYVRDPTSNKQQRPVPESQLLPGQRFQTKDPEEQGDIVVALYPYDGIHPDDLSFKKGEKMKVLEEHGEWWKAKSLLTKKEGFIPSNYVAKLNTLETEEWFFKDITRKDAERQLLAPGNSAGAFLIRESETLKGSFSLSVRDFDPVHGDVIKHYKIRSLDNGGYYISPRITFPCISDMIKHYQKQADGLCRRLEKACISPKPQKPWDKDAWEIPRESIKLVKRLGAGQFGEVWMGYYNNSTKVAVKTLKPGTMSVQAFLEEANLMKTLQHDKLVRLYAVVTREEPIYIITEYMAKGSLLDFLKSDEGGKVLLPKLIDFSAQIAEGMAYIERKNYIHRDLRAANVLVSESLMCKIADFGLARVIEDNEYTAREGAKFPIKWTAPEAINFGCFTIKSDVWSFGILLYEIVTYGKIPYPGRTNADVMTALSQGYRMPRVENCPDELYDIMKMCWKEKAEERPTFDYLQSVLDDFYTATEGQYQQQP
Chain of DDR1 tyrosine kinase (Q08345 610-905): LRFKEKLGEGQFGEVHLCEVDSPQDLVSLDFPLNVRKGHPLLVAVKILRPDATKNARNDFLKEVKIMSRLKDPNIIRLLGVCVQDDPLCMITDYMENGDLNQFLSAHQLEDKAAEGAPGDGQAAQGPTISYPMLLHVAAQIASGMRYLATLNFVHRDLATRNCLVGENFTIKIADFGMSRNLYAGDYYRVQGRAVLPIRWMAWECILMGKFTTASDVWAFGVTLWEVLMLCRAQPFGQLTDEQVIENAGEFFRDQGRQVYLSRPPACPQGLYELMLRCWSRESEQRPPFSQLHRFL
Chain of c-Src tyrosine kinase (P12931 whole entry, looked up, the tested form may be a part): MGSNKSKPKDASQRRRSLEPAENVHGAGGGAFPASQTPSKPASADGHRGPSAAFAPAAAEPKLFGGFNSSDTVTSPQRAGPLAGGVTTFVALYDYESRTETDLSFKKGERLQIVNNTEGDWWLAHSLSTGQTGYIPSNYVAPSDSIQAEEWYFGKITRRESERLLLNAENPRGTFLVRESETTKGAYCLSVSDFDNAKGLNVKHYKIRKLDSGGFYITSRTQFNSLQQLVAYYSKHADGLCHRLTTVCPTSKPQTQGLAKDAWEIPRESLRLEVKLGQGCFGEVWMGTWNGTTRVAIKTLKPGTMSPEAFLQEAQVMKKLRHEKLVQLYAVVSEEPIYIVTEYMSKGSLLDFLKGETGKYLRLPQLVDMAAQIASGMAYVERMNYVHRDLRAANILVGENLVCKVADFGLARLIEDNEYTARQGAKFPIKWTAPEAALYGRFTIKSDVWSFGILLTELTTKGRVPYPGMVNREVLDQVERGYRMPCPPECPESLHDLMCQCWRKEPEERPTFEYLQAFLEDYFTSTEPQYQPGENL
Chain of Fgr tyrosine kinase (P09769 whole entry): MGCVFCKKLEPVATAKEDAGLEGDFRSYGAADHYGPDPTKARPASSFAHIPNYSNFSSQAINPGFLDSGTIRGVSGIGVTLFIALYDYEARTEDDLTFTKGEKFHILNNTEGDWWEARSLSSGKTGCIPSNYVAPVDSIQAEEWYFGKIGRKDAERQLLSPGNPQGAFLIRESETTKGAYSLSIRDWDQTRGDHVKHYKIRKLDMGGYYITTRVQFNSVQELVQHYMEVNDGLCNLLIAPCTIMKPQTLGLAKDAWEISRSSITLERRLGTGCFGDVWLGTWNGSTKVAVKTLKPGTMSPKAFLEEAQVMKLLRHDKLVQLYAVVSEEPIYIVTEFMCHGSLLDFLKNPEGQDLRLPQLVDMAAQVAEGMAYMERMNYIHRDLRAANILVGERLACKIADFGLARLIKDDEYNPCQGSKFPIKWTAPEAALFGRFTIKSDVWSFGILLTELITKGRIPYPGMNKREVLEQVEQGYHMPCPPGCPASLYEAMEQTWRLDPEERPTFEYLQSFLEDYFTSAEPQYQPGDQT
Chain of DDR2 tyrosine kinase (Q16832 563-849): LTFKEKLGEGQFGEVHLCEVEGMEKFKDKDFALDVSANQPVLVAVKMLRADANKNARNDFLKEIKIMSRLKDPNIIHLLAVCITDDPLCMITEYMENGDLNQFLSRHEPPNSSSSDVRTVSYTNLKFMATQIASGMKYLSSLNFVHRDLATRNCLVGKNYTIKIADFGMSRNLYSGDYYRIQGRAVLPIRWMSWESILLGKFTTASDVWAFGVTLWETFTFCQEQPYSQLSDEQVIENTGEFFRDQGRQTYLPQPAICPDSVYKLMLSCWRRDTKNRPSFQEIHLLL

In the case of `CCCC1O[C@@H]2C[C@H]3[C@@H]4CCC5=CC(=O)C=C[C@]5(C)[C@H]4[C@@H](O)C[C@]3(C)[C@]2(C(=O)CO)O1` (stereo partly drawn) [Budesonide, reference compound], the “mucin in lung tissue (periodic Schiff staining)” value [1] is reported as “decreased the extent of the staining”.

In the case of `Oc1cccc(Nc2ccnc3cc(-c4cccc(CN5CCCCC5)c4)sc23)c1` [LCB 03-0109, 3-(2-(3-(piperidin-1-ylmethyl)phenyl)thieno[3,2-b]pyridin-7-ylamino)phenol], the inhibition at 1 µM [2] is reported as > 70%, the inhibition at 1 µM ([3]; 1 uM compound) is reported as > 80% and the inhibition at 1 µM ([4]; 1 uM compound) is reported as > 70%. The inhibition at 0.5 µM [5] was 48%, the inhibition at 1 µM ([6]; 1 uM compound) was > 70% and the inhibition at 1 µM ([7]; 1 uM compound) was > 80%. For the same compound, the inhibition at 1 µM ([8]; 1 uM compound) was > 70%, the inhibition at 10 µM [9] was 90% and the inhibition at 10 µM [10] was 56%. For the same compound, the “Inhibition (%) of increase of ear thickness” value [11, 17] was 52% and the inhibition at 0.5 µM [12, 18] was 67%.

`Oc1cccc(Nc2ccnc3cc(-c4cccc(CN5CCOCC5)c4)sc23)c1` [LCB 03-0110, 3-(2-(3-(morpholinomethyl)phenyl)thieno[3,2-b]pyridin-7-ylamino)phenol] was tested, and the “mucin in lung tissue (periodic Schiff staining)” value [1] was “suppressed mucin synthesis similarly to the positive control”, the “eosinophil penetration into lung tissue” value ([1]; 20 ul of 0.1% intratracheal) was “suppressed eosinophil penetration into lung tissue” and the “eotaxin in BALF” value ([1]; 20 ul of 0.1% intratracheal) was “suppression of eotaxin”. For the same compound, the inhibition at 1 µM [3] was > 90%, the inhibition at 1 µM [4] was > 80% and the inhibition at 1 µM [6] was > 90%. The “reduction of epidermal thickness compared to the TNCB group” value [13] was “more than 60%”, the “reduction of mast cell count compared to the TNCB group” value [13] was “approximately 25%” and the “reduction of serum IgE level compared to the TNCB group” value [13] was “more than 20%”. For the same compound, the “reduction of transepidermal water loss (TEWL) compared to the TNCB group” value [13] was “more than 30%”, the inhibition at 0.3 µM [14] was ≥ 80% and the inhibition at 1 µM [15] was ~100%. The inhibition at 1 µM [7] was > 90%, the inhibition at 1 µM [8] was > 80% and the inhibition at 10 µM [9] was 97%. The inhibition at 10 µM [10] was 64%, the wound closing rate ([16]; 150 μL per wound, every three days, versus carrier solution) was “closed at a higher rate” and the “macrophages (F4/80) and activated myoblast cells (alpha smooth muscle actin) in wound tissue” value ([16]; three days after wounding) was “suppressed the activation of macrophages and myoblast cells with a statistical significance”. The “Inhibition (%) of increase of ear thickness” value ([11]; mouse, in vivo) was 72% and the inhibition at 0.5 µM ([12]; 48 h) was 82%.

With `Oc1cccc(Nc2ccnc3cc(-c4cccc(CN5CCNCC5)c4)sc23)c1` [LCB 03-0111, 3-(2-(3-(piperazin-1-ylmethyl)phenyl)thieno[3,2-b]pyridin-7-ylamino)phenol] the inhibition at 1 µM [2] was > 80%, the inhibition at 1 µM ([3]; 1 uM compound) was > 90% and the inhibition at 1 µM ([4]; 1 uM compound) was > 80%. The inhibition at 0.5 µM [5] was 58%, the inhibition at 1 µM ([6]; 1 uM compound) was > 80% and the inhibition at 1 µM ([7]; 1 uM compound) was > 90%. The inhibition at 1 µM ([8]; 1 uM compound) was > 80%, the inhibition at 10 µM [9] was 92% and the inhibition at 10 µM [10] was 57%. The “Inhibition (%) of increase of ear thickness” value [11, 17] was 71% and the inhibition at 0.5 µM [12, 18] was 79%.

`CCNCc1cccc(-c2cc3nccc(Nc4cccc(O)c4)c3s2)c1` [LCB 03-0112, 3-(2-(3-((ethylamino)methyl)phenyl)thieno[3,2-b]pyridin-7-ylamino)phenol] was tested, and the inhibition at 1 µM [2] was > 80%, the inhibition at 1 µM ([3]; 1 uM compound) was > 80% and the inhibition at 1 µM ([4]; 1 uM compound) was > 80%. For the same compound, the inhibition at 0.5 µM [5] was 38%, the inhibition at 1 µM ([6]; 1 uM compound) was > 80% and the inhibition at 1 µM ([7]; 1 uM compound) was > 80%. For the same compound, the inhibition at 1 µM ([8]; 1 uM compound) was > 80%, the inhibition at 10 µM [9] was 81% and the inhibition at 10 µM [10] was 46%. The “Inhibition (%) of increase of ear thickness” value [11, 17] was 68% and the inhibition at 0.5 µM [12, 18] was 71%.
